In this assay the target is T1, IRAK4 (Homo sapiens, UniProt Q9NWZ3).
T1 construct: endogenous in cells; host or cells: OCI-LY10
T1 sequence (Q9NWZ3 1-460): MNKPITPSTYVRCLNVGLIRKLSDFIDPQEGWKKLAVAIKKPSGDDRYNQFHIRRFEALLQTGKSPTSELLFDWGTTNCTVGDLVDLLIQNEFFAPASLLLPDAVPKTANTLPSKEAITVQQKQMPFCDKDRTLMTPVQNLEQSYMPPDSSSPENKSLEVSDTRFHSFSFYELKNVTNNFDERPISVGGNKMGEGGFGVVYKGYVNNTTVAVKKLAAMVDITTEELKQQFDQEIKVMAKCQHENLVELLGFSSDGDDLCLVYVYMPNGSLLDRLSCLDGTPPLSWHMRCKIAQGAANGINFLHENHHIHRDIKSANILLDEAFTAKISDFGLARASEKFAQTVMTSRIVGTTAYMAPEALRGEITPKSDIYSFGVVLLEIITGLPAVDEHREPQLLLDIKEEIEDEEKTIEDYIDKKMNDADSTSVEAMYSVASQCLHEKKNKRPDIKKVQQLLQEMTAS
As to the kind of experiment: IRAK4 MSD Degradation in OCI-LY10. In kind it is cell-based. To be noted: OCI-LY10 cells, Meso Scale Discovery, incubated 4 to 24 hours. A digest of the protocol: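 IRAK4 degradation was quantified by Meso Scale electrochemiluminescence (anti-IRAK4 capture and detection antibodies) in lysates of treated OCI-LY10 cells. Compounds were dosed at 8 concentrations (1:3 dilutions, top 1 to 10 μM) for 4 to 24 h; DC50 derived by three-parameter logistic fitting.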

The structures appear in SMILES notation.

In turn, `CN(CCCNc1cccc2c1C(=O)N(C1CCC(=O)NC1=O)C2=O)C[C@H]1CC[C@H](c2nc3cc(C(C)(C)O)c(NC(=O)c4cccc(C(F)(F)F)n4)cc3s2)CC1` (stereo partly drawn) [I-490] registered a DC50 of over 200 nM.

In turn, `COc1cc2nn([C@H]3C[C@H](CN4CCC(c5c(F)ccc6c5n(C)c(=O)n6C5CCC(=O)NC5=O)CC4)C3)cc2cc1NC(=O)c1cccc(C(F)(F)F)n1` (stereo partly drawn) [I-141] showed a DC50 of 10 to 50 nM.

With `CN(C[C@H]1CC[C@H](n2cc3cc(NC(=O)c4cccc(C(F)(F)F)n4)c(C(C)(C)O)cc3n2)CC1)C1CCN(c2cccc3c(N4CCC(=O)NC4=O)cncc23)CC1` [I-66], the DC50 is under 10 nM.

The molecule `CC(C)Nc1cc(-n2ccc3cc(F)cnc32)ncc1C(=O)N[C@H]1CC[C@H](CN2CCN(c3ccc4c(c3)n(C)c(=O)n4C3CCC(=O)NC3=O)CC2)CC1` (stereo partly drawn) [I-267] showed a DC50 of over 200 nM.

`Cc1cc2nn([C@H]3CC[C@H](CN4C5CCC4CN(c4cccc6c4n(C)c(=O)n6C4CCC(=O)NC4=O)C5)CC3)cc2cc1NC(=O)c1cccc(C(F)(F)F)n1` (stereo partly drawn) [I-398] displayed a DC50 of under 10 nM.

In turn, `CN(CCn1cc2cc(NC(=O)c3cccc(C(F)(F)F)n3)c(F)cc2n1)C1CCN(c2cccc3c2n(C)c(=O)n3C2CCC(=O)NC2=O)CC1` (stereo not drawn) [I-19, N-[2-[2-[[1-[1-(2,6-dioxo-3-piperidyl)-3-methyl-2-oxo-benzimidazol-4-yl]-4-piperidyl]-methyl-amino]ethyl]-6-fluoro-indazol-5-yl]-6-(trifluoromethyl)pyridine-2-carboxamide] showed a DC50 of over 200 nM.

Molecule `COc1cc2nn([C@H]3CC[C@H](CN4CCC(O[C@H]5C[C@@H](c6cccc7c6n(C)c(=O)n7C6CCC(=O)NC6=O)C5)CC4)CC3)cc2cc1NC(=O)c1cccc(C(F)(F)F)n1` (stereo partly drawn) [I-385] came in with a DC50 of 10 to 50 nM.

`COc1ccc2c(c1C1CCN(C[C@H]3C[C@H](n4cc5cc(NC(=O)c6cccc(C(F)(F)F)n6)ncc5n4)C3)CC1)n(C)c(=O)n2C1CCC(=O)NC1=O` (stereo partly drawn) [I-421] registered a half-maximal degradation concentration (DC50) of 50 to 100 nM.

As for `COc1cc2nn([C@H]3C[C@H](CN4CCC(c5cccc6c5n(C)c(=O)n6C5CCC(=O)NC5=O)CC4)C3)cc2cc1NC(=O)c1cccc(C(F)(F)F)n1` (stereo partly drawn) [I-33], the DC50 was under 10 nM.

As for `CC(C)Nc1cc(-n2ccc3cc(C#N)cnc32)ncc1C(=O)N[C@H]1CC[C@H](CN2CCC(c3cccc4c3n(C)c(=O)n4C3CCC(=O)NC3=O)CC2)CC1` (stereo partly drawn) [I-114], the DC50 is under 10 nM.

In the case of `COc1cc2nn([C@H]3CC[C@H](CN4CCCN(c5cccc6c(N7CCC(=O)NC7=O)cncc56)CC4)CC3)cc2cc1NC(=O)c1cncc(C#N)c1` [I-289], the DC50 is over 200 nM.

In the case of `COc1cc2nn([C@H]3CC[C@H](CN(C)C4CCN(c5cccc6c5n(C)c(=O)n6C5CCC(=O)NC5=O)CC4)CC3)cc2cc1NC(=O)c1cncc(C(F)(F)F)c1` (stereo partly drawn) [I-130], the DC50 was under 10 nM.

Turning to `CC(C)(O)c1cc2nn([C@H]3CC[C@H](CN4CCC(c5ccc6c(N7CCC(=O)NC7=O)cncc6c5)CC4)CC3)cc2cc1NC(=O)c1cccc(C(F)(F)F)n1` [I-64], the DC50 was under 10 nM.

Regarding `CC(C)(N)c1cc2nn([C@H]3CC[C@H](CN4C5CCC4CN(c4cccc6c(N7CCC(=O)NC7=O)cncc46)C5)CC3)cc2cc1NC(=O)c1cccc(C(F)(F)F)n1` [I-227], the DC50 is under 10 nM.

For the molecule `COc1cc2nn([C@H]3C[C@@H](CN4CC(c5cccc6c5n(C)c(=O)n6C5CCC(=O)NC5=O)C4)C3)cc2cc1NC(=O)c1cccc(C(F)(F)F)n1` (stereo partly drawn) [I-50, N-[2-[3-[[3-[1-(2,6-dioxo-3-piperidyl)-3-methyl-2-oxo-benzimidazol-4-yl]azetidin-1-yl]methyl]cyclobutyl]-6-methoxy-indazol-5-yl]-6-(trifluoromethyl)pyridine-2-carboxamide], the DC50 lay in the range of 10 to 50 nM.

Turning to `COc1cc2nn([C@H]3CC[C@H](CN4CCN(c5cccc6c5n(C)c(=O)n6C5CCC(=O)NC5=O)C[C@@H]4C)CC3)cc2cc1NC(=O)c1cccc(C(F)(F)F)n1` (stereo partly drawn) [I-246], the DC50 lay within 10 to 50 nM.

`C[C@@H]1CN(c2cccc3c(N4CCC(=O)NC4=O)cncc23)CCN1C[C@H]1CC[C@H](n2cc3cc(NC(=O)c4cccc(C(F)(F)F)n4)c(C(C)(C)O)cc3n2)CC1` [I-230]: the 50% degradation concentration (DC50) was under 10 nM.

In turn, `CC(C)Nc1cc(-c2ccc3cc(C#N)cnn23)ncc1C(=O)N[C@H]1CC[C@H](CN2CCN(c3cccc4c(N5CCC(=O)NC5=O)cncc34)CC2)CC1` [I-373] showed a DC50 of 10 to 50 nM.

`COc1cc2nn([C@H]3CC[C@H](CN4CCN(c5ccc(F)c6c(N7CCC(=O)NC7=O)cncc56)CC4)CC3)cc2cc1NC(=O)c1cccc(C(F)(F)F)n1` [I-311] displayed a DC50 of under 10 nM.

As to `COc1cc2nn([C@H]3CC[C@H](CN4CCN(c5cccc6c(N7CCC(=O)NC7=O)cncc56)CC4)CC3)cc2cc1NC(=O)c1cncc(C(F)(F)F)n1` [I-299], the half-maximal degradation concentration (DC50) was under 10 nM.

Consider `CC(C)Nc1cc(-c2ccc3cc(C#N)cnn23)ncc1C(=O)N[C@H]1CC[C@H](CN2CCC(OCC#Cc3cccc4c3n(C)c(=O)n4C3CCC(=O)NC3=O)CC2)CC1` (stereo partly drawn) [I-199], for which the half-maximal degradation concentration (DC50) lay within 10 to 50 nM.

The molecule `COc1cc2nn([C@H]3CC[C@H](CN4CCC5(CC4)CCN(c4cccc6c4n(C)c(=O)n6C4CCC(=O)NC4=O)CC5)CC3)cc2cc1NC(=O)c1cncc(C#N)c1` (stereo partly drawn) [I-207] displayed a DC50 of under 10 nM.

`CC(C)(O)c1cc2nc([C@H]3CC[C@H](CN4CCN(CCNc5cccc6c5C(=O)N(C5CCC(=O)NC5=O)C6=O)CC4)CC3)sc2cc1NC(=O)c1cccc(C#N)n1` (stereo partly drawn) [I-441] had a DC50 of 10 to 50 nM.

Molecule `COc1cc2nn([C@H]3CC[C@H](CN(C)C4CCN(c5cccc6c(N7CCC(=O)NC7=O)cncc56)CC4)CC3)cc2cc1NC(=O)c1cccc(C(F)(F)F)n1` [I-96] registered a 50% degradation concentration (DC50) of under 10 nM.

For `COc1cc(NC(=O)c2cccc(C(F)(F)F)n2)cc2cn([C@H]3CC[C@H](CN4CCC(c5cccc6c5n(C)c(=O)n6C5CCC(=O)NC5=O)CC4)CC3)nc12` (stereo partly drawn) [I-176], the DC50 was under 10 nM.

In turn, `COc1cc2nn([C@H]3CC[C@H](CN4CCC5(CC4)CC(Nc4cccc6c4C(=O)N(C4CCC(=O)NC4=O)C6=O)C5)CC3)cc2cc1NC(=O)c1cnn2cccnc12` (stereo partly drawn) [I-13] had a DC50 of under 10 nM.

The molecule `CN(C[C@H]1CC[C@H](c2cc3cc(NC(=O)c4cccc(C(F)(F)F)n4)c(F)cc3n2C)CC1)C1CCN(c2cccc3c2n(C)c(=O)n3C2CCC(=O)NC2=O)CC1` (stereo partly drawn) [I-59] showed a DC50 of over 200 nM.

As to `Cc1c(C2CCN(C[C@H]3CC[C@H](n4cc5cc(NC(=O)c6cccc(C(F)(F)F)n6)ccc5n4)CC3)CC2)ccc2c1n(C)c(=O)n2C1CCC(=O)NC1=O` (stereo partly drawn) [I-202], the DC50 was over 200 nM.

With `Cn1c(=O)n(C2CCC(=O)NC2=O)c2cccc(C3CCN(C[C@H]4CC[C@H](n5cc6cc(NC(=O)c7cccc(C(F)(F)F)n7)c(C7CC7)cc6n5)CC4)CC3)c21` (stereo partly drawn) [I-69], the half-maximal degradation concentration (DC50) is under 10 nM.

Molecule `Cn1c(=O)n(C2CCC(=O)NC2=O)c2cccc(N3CCCN(C[C@H]4CC[C@H](n5cc6cc(NC(=O)c7cccc(C(F)(F)F)n7)ccc6n5)CC4)CC3)c21` (stereo partly drawn) [I-328] registered a DC50 of 10 to 50 nM.

As to `COc1cc2c(cc1NC(=O)c1cccc(C(F)(F)F)n1)cc([C@H]1CC[C@H](CN3CCC(c4cccc5c4n(C)c(=O)n5C4CCC(=O)NC4=O)CC3)CC1)n2C` (stereo partly drawn) [I-43], the DC50 was over 200 nM.

Molecule `COc1cc2nn([C@H]3CC[C@H](CN4CCC(c5cccc6c5n(C)c(=O)n6C5CCC(=O)NC5=O)CC4)CC3)cc2cc1NC(=O)n1ccc2cccnc21` (stereo partly drawn) [I-112] displayed a DC50 of under 10 nM.

As for `COc1cc2nn([C@H]3CC[C@H](CN4CCC(c5c(C)ccc6c5n(C)c(=O)n6C5CCC(=O)NC5=O)CC4)CC3)cc2cc1NC(=O)c1cncc(C#N)c1` (stereo partly drawn) [I-109], the DC50 was under 10 nM.

`Cn1c(=O)n(C2CCC(=O)NC2=O)c2ccc(F)c(C3CCN(C[C@H]4CC[C@H](n5cc6cc(NC(=O)c7cccc(C(F)(F)F)n7)ncc6n5)CC4)CC3)c21` (stereo partly drawn) [I-82] registered a DC50 of under 10 nM.

Turning to `CC(C)Nc1cc(-n2ccc3cc(C#N)cnc32)ncc1C(=O)NC[C@H]1CC[C@H](CN2CCC(c3cccc4c3n(C)c(=O)n4C3CCC(=O)NC3=O)CC2)CC1` (stereo partly drawn) [I-85], the DC50 is 50 to 100 nM.

With `COc1cc2nn([C@H]3CC[C@H](CN4CCC(c5cccc6c5n(C)c(=O)n6C5CCC(=O)NC5=O)CC4)CC3)cc2cc1NC(=O)c1cnc(OC)c(Cl)c1` (stereo partly drawn) [I-193], the DC50 was over 200 nM.

For `CN(C[C@H]1CC[C@H](n2cc3cc(NC(=O)c4cccc(C(F)(F)F)n4)ccc3n2)CC1)C1CCN(c2ccc3c(N4CCC(=O)NC4=O)cncc3c2)CC1` [I-319], the DC50 fell in the range of 10 to 50 nM.

For the molecule `N#Cc1cc2nn([C@H]3CC[C@H](CN4CCC(c5cccc6c(N7CCC(=O)NC7=O)cncc56)CC4)CC3)cc2cc1NC(=O)c1cccc(C(F)(F)F)n1` [I-213], the half-maximal degradation concentration (DC50) was under 10 nM.

For `CN(C[C@H]1CC[C@H](n2cc3cc(NC(=O)c4cncc(C#N)c4)c(OC(F)(F)F)cc3n2)CC1)C1CCN(c2cccc3c2n(C)c(=O)n3C2CCC(=O)NC2=O)CC1` (stereo partly drawn) [I-249], the DC50 was over 200 nM.

In turn, `Cn1c(=O)n(C2CCC(=O)NC2=O)c2cccc(C3CCN(C[C@H]4CC[C@H](n5cc6cc(NC(=O)c7cccc(C(F)(F)F)n7)ncc6n5)CC4)CC3)c21` (stereo partly drawn) [I-62] returned a DC50 of under 10 nM.

Consider `COc1cc2nn([C@H]3C[C@H](CN4CCC(c5c(F)ccc6c5n(C)c(=O)n6C5CCC(=O)NC5=O)CC4)C3)cc2cc1NC(=O)c1cccc(C(F)(F)F)n1` (stereo partly drawn) [I-89], for which the DC50 was in the range of 10 to 50 nM.

The molecule `CN(C[C@H]1CC[C@H](n2cc3cc(NC(=O)c4cccc(C(F)(F)F)n4)c(C#N)cc3n2)CC1)C1CCN(c2cccc3c2n(C)c(=O)n3C2CCC(=O)NC2=O)CC1` (stereo partly drawn) [I-239] displayed a DC50 of under 10 nM.
